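Exposure lasted 48 hours, with cells grown in 96-well plates and compounds tested at five concentrations. The concentration for full growth arrest is given as TGI.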
How the values were obtained:
Assay in all cases: growth of human tumour cells (NCI), 48 h
[1] = system: 786-0 renal
[2] = system: A498 renal
[3] = system: A549 NSCLC
[4] = system: ACHN renal
[5] = system: BT-549 breast
[6] = system: CAKI-1 renal
[7] = system: CCRF-CEM leukemia
[8] = system: DU-145 prostate
[9] = system: EKVX NSCLC
[10] = system: HCC-2998 colon
[11] = system: HCT-116 colon
[12] = system: HCT-15 colon
[13] = system: HL-60(TB) leukemia
[14] = system: HOP-62 NSCLC
[15] = system: HOP-92 NSCLC
[16] = system: HS 578T breast
[17] = system: HT29 colon
[18] = system: IGROV1 ovarian
[19] = system: K-562 leukemia
[20] = system: KM12 colon
[21] = system: LOX IMVI melanoma
[22] = system: M14 melanoma
[23] = system: MALME-3M melanoma
[24] = system: MCF7 breast
[25] = system: MDA-MB-231 breast
[26] = system: MDA-MB-435
[27] = system: MDA-N
[28] = system: MOLT-4 leukemia
[29] = system: NCI-H226 lung
[30] = system: NCI-H23 lung
[31] = system: NCI-H460 lung
[32] = system: NCI-H522 lung
[33] = system: NCI/ADR-RES ovarian
[34] = system: OVCAR-3 ovarian
[35] = system: OVCAR-4 ovarian
[36] = system: OVCAR-5 ovarian
[37] = system: OVCAR-8 ovarian
[38] = system: PC-3 prostate
[39] = system: RXF 393 renal
[40] = system: SF-268 CNS
[41] = system: SF-295 CNS
[42] = system: SF-539 CNS
[43] = system: SK-MEL-2 melanoma
[44] = system: SK-MEL-28 melanoma
[45] = system: SK-MEL-5 melanoma
[46] = system: SN12C renal
[47] = system: SNB-19 CNS
[48] = system: SNB-75 CNS
[49] = system: SR leukemia
[50] = system: SW-620 colon
[51] = system: T-47D breast
[52] = system: TK-10 renal
[53] = system: U251 CNS
[54] = system: UACC-257 melanoma
[55] = system: UO-31 renal

`C/C(=N\NC(=S)N1CCCCCCCCCCCC1)c1ccccn1` gave a TGI [1] of 1.24 µM, a TGI [2] of 1.32 µM and a TGI [3] of 1.35 µM. It also gave a TGI [4] of 1.41 µM, a TGI [5] of 1.6 µM and a TGI [6] of 1.15 µM. It also gave a TGI [7] of 1.76 µM, a TGI [8] of 1.94 µM and a TGI [9] of 0.432 µM. The TGI [10] was 1.63 µM, the TGI [11] was 1.66 µM and the TGI [12] was 1.6 µM. It also gave a TGI [13] greater than 100 µM, a TGI [14] of 1.36 µM and a TGI [15] of 0.42 µM. For the same compound, the TGI [16] was 0.942 µM, the TGI [17] was 1.04 µM and the TGI [18] was 1.35 µM. The TGI [19] was 0.121 µM, the TGI [20] was 1.52 µM and the TGI [21] was 1.23 µM. For the same compound, the TGI [22] was 2.15 µM, the TGI [23] was 1.08 µM and the TGI [24] was 0.674 µM. It also gave a TGI [25] of 1.22 µM, a TGI [26] of 0.721 µM and a TGI [27] of 1.16 µM. For the same compound, the TGI [28] was 1.07 µM, the TGI [29] was 1.02 µM and the TGI [30] was 2.81 µM. The TGI [31] was 1.43 µM, the TGI [32] was 0.408 µM and the TGI [33] was 9.7 µM. It also gave a TGI [34] of 1.48 µM, a TGI [35] of 1.51 µM and a TGI [36] of 2.2 µM. For the same compound, the TGI [37] was 1.9 µM, the TGI [38] was 1.1 µM and the TGI [39] was 0.536 µM. The TGI [40] was 2.01 µM, the TGI [41] was 1.01 µM and the TGI [42] was 0.846 µM. The TGI [43] was 1.27 µM, the TGI [44] was 2.02 µM and the TGI [45] was 0.636 µM. It also gave a TGI [46] of 2.19 µM, a TGI [47] of 2.03 µM and a TGI [48] of 1 µM. For the same compound, the TGI [49] was 2.28 µM, the TGI [50] was 0.692 µM and the TGI [51] was 1.25 µM. It also gave a TGI [52] of 1.35 µM, a TGI [53] of 0.28 µM and a TGI [54] of 0.414 µM. The TGI [55] was 1.77 µM.
